The results in this text go back to US20040006236A1, “Diaminopropionic acid derivatives” (priority 1999, published 2004).

The target in experiment [1] is T1, ICAM-1 binding to immobilized Mac-1 (Homo sapiens, UniProt P05107+P11215).
T1 construct: made in house; host or cells: transfected 293 cells (Mac-1)
The experiment in a line: Mac-1/ICAM-1 screening assay (solid-phase ELISA). Conditions: read-out: Mac-1/ICAM-1 Protein-Protein Assay IC50. The procedure, abridged:
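Competitive solid-phase ELISA: membrane Mac-1 from transfected 293 cells coated at 3 μg/mL in 20 mM Hepes pH 7.2/0.14 M NaCl/1 mM MnCl2; compounds (0.12 nM-20 μM, 1:4 series) plus 5dICAM-Ig (40 μg/mL, added) 2 h at 37° C. Bound ICAM-Ig detected with HRP anti-human IgG Fc, TMB, A450; IC50 reported.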
In general terms: In an ELISA, binding on a coated surface is turned into a signal by an enzyme label.

Experiment [2] deals with T lymphocyte proliferation (C57BI/6 spleen cells with irradiated BALB/c spleen cells). The experiment in a line: Mixed lymphocyte reaction (MLR), one-way. The experiment is classed as cell-based, mice. Conditions: Mus musculus, T-lymphocyte; read-out: MLR IC50. The essentials: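 One-way murine MLR: C57BI/6 responder splenocytes proliferate against irradiated BALB/c stimulators while exposed to serially diluted antagonists in supplemented RPMI1640 for 3 days. Proliferation read as [3H]-thymidine uptake over a final 6 h pulse (0.5 μCi/well), scintillation counted.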

Experiment [3] relates to cell-surface Mac-1 adhesion to immobilized fibrinogen (HL-60 cells). The experiment in a line: Mac-1/Fibrinogen cell-based screening assay. Details: species or system human. Particulars: Homo sapiens, HL-60, HL-60 cells; read-out: Mac-1/Fgn Cell based Assay IC50. The essentials: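 Wells coated with fibrinogen and blocked with PVP. Labeled HL-60 cells (2×10^6 cells/mL in RPMI/0.05% BSA/0.2 mM MnCl2) preincubated with DMSO-diluted compounds for 10 min at 37° C, then left to adhere 30 min at 37° C/5% CO2. Unbound cells washed off with TBS.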

T1 sequence (P05107 23-769, other chains not shown): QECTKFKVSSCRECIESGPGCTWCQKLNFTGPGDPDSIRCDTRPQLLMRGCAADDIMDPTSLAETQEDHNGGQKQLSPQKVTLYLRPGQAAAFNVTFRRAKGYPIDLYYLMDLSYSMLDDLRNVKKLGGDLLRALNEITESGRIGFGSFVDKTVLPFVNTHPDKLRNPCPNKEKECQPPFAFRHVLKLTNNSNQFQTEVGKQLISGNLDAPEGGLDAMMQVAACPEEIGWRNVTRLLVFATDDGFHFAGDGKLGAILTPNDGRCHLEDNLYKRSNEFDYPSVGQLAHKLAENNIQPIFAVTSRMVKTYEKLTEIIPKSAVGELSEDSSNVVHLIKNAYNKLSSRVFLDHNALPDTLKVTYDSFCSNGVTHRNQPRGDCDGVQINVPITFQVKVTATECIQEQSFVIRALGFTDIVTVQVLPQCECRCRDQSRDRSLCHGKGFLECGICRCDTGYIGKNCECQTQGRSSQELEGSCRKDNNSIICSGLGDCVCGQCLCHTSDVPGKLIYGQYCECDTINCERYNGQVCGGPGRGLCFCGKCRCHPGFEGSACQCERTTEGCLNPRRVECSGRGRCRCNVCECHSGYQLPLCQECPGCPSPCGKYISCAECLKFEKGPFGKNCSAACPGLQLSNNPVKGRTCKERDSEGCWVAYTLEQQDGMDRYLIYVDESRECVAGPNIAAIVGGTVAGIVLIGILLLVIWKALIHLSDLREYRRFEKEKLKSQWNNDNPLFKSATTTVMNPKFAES

Turning to `O=C(NCc1cccc(O)c1)c1ccc(C(=O)N[C@@H](CNC(=O)C2(c3ccccc3)CC2)C(=O)O)c(Cl)c1` [Example 99], the IC50 amounted to 50 nM in experiment [1] and 2000 nM in experiment [2].
For `O=C(NC[C@H](NC(=O)c1ccc(C(=O)[C@H]2C[C@@H]2c2ccccc2)cc1Cl)C(=O)O)c1cccs1` [Example 377], the IC50 in experiment [1] turned out to be 160 nM; in experiment [2], 9500 nM.
`O=C(NCc1cccc(O)c1)c1ccc(C(=O)N[C@@H](CNC(=O)c2ccccc2Oc2ccccc2)C(=O)O)c(Cl)c1` [Example 144]: the IC50 worked out at 53 nM in experiment [1] and 1800 nM in experiment [2].
The corresponding values for `Cc1noc(C)c1CCC(=O)NC[C@H](NC(=O)c1ccc(C(=O)NCc2cccc(O)c2)cc1Cl)C(=O)O` [Example 111] are 44 nM and 500 nM.
Turning to `O=C(NCc1cccc(O)c1)c1ccc(C(=O)N[C@@H](CNS(=O)(=O)c2ccccc2)C(=O)O)c(Cl)c1` [Example 360, 3-(phenylsulfonylamino)-N-[2-chloro-4-[[[(3-hydroxyphenyl)methyl]amino]carbonyl]benzoyl]-L-alanine], the results for the IC50 in experiment [1] and in experiment [2] were 600 nM and 4600 nM, respectively.
For `O=C(CCc1ccccc1)c1ccc(C(=O)N[C@@H](CNC(=O)c2cccs2)C(=O)O)c(Cl)c1` [Example 378], in that order: 75 nM and 6400 nM.
For the compound `N=C(N)NC[C@H](NC(=O)c1ccc(C(=O)NCc2cccc(O)c2)cc1Cl)C(=O)O` [Example 371, N-[2-chloro-4-[[[(3-hydroxyphenyl)methyl]amino]-carbonyl]benzoyl]-3-(aminoiminomethyl)amino-L-alanine], the IC50 is 73 nM in experiment [1] and 3500 nM in experiment [2].
Take `C[C@@H](NC(=O)c1cc(Cl)c(C(=O)N[C@@H](CNC(=O)c2cccs2)C(=O)O)c(Cl)c1)c1cccc2ccccc12` [Example 346, N-[2,6-dichloro-4-[[[(1R)-1-(1-naphthalenyl)ethyl]amino]carbonyl]benzoyl]-3-[(thiophene-2-carbonyl)amino]-L-alanine]: the values for the IC50 in experiment [2] and in experiment [3] were 68 nM and 4 nM, respectively.
In the case of `O=C(NC[C@H](NC(=O)c1ccc(CNC(=O)c2ccccc2O)cc1Cl)C(=O)O)c1ccccc1` [Example 365], the figures for the IC50 in experiment [1] and in experiment [2] were 208 nM and 9500 nM, respectively.
The corresponding values for `CN(C)c1ccc(C(=O)NC[C@H](NC(=O)c2ccc(C(=O)NCc3cccc(O)c3)cc2Cl)C(=O)O)cc1` [Example 128] are 124 nM and 4900 nM.
Regarding `C/C=C/C(=O)NC[C@H](NC(=O)c1ccc(C(=O)NCc2cccc(O)c2)cc1Cl)C(=O)O` [Example 113], the IC50 stood at 30 nM in experiment [1] and 350 nM in experiment [2].
For `CCCCCOc1ccc(C(=O)NC[C@H](NC(=O)c2ccc(C(=O)NCc3cccc(O)c3)cc2Cl)C(=O)O)cc1` [Example 143], in that order: 62 nM and 12000 nM.
The corresponding values for `Cc1ccc(C(=O)NC[C@H](NC(=O)c2ccc(C(=O)NCc3cccc(O)c3)cc2Cl)C(=O)O)cc1` [Example 139] are 47 nM and 1750 nM.
On to `COc1ccc(C(=O)NC[C@H](NC(=O)c2c(Cl)cc(C(=O)NCc3cccc(O)c3)cc2Cl)C(=O)O)cc1O` [Example 351], for which the IC50 is 23 nM in experiment [2] and 3 nM in experiment [3].
As for `COCCC1(C(=O)NC[C@H](NC(=O)c2ccc(C(=O)NCc3cccc(O)c3)cc2Cl)C(=O)O)CCCC1` [Example 102], the IC50 in experiment [1] came to 50 nM; in experiment [2] it was 400 nM.
The corresponding values for `O=C(NC[C@H](NC(=O)c1ccc(/C=C/Cc2ccccc2)cc1Cl)C(=O)O)c1cccs1` [Example 373, N-[2-chloro-4-(3-phenyl-1-propenyl)benzoyl]-3-(thiophene-2-carbonyl)amino-L-alanine] are 68 nM and 12500 nM.
For `COc1ccc(/C=C/C(=O)NC[C@H](NC(=O)c2ccc(C(=O)NCc3cccc(O)c3)cc2Cl)C(=O)O)cc1` [Example 114], in that order: 48 nM and 1650 nM.
The corresponding values for `O=C(NCc1ccc(C(=O)N[C@@H](CNC(=O)c2ccccc2)C(=O)O)c(Cl)c1)c1cccc(O)c1` [Example 364, N-[2-chloro-4-[[(3-hydroxyphenyl)carbonyl]aminomethyl]benzoyl]-3-benzoylamino-L-alanine] are 167 nM and 2850 nM.
As to `O=C(NCc1cccc(O)c1)c1ccc(C(=O)N[C@@H](CNC(=O)C2CCC2)C(=O)O)c(Cl)c1` [Example 100], the figures for the IC50 in experiment [1] and in experiment [2] were 32 nM and 705 nM, respectively.
The corresponding values for `COc1cc(C(=O)NC[C@H](NC(=O)c2ccc(C(=O)NCc3cccc(O)c3)cc2Cl)C(=O)O)cc(OC)c1OC` [Example 147] are 119 nM and 4600 nM.
For `O=C(NCc1cccc(O)c1)c1ccc(C(=O)N[C@@H](CNC(=O)c2cccnc2)C(=O)O)c(Cl)c1` [Example 165], in that order: 39 nM and 800 nM.
The corresponding values for `CC(=O)Nc1nc(C)c(S(=O)(=O)NC[C@H](NC(=O)c2ccc(C(=O)N[C@H](C)c3cccc4ccccc34)cc2Cl)C(=O)O)s1` [Example 362] are 1530 nM and 15000 nM.
As to `O=C(NCc1cccc(O)c1)c1cc(Cl)c(C(=O)N[C@@H](CNC(=O)c2sccc2Br)C(=O)O)c(Cl)c1` [Example 353], the IC50 in experiment [2] came to 52 nM; in experiment [3], 13 nM.
Turning to `O=C(NCc1cccc(O)c1)c1ccc(C(=O)N[C@@H](CNC(=O)c2ccc([N+](=O)[O-])o2)C(=O)O)c(Cl)c1` [Example 149], the IC50 in experiment [1] came to 35 nM; in experiment [2], 950 nM.
For `CCOc1ccc(C(=O)NC[C@H](NC(=O)c2ccc(C(=O)NCc3cccc(O)c3)cc2Cl)C(=O)O)cc1` [Example 130], in that order: 53 nM and 3000 nM.
The corresponding values for `O=C(NCc1cccc(O)c1)c1ccc(C(=O)N[C@@H](CNC(=O)c2ccc(Cl)cc2)C(=O)O)c(Cl)c1` [Example 124] are 35 nM and 2500 nM.
Consider `O=C(NCc1cccc(O)c1)c1cc(Cl)c(C(=O)N[C@@H](CNC(=O)c2cccc(O)c2)C(=O)O)c(Cl)c1` [Example 350], for which the IC50 was found to be 12 nM in experiment [2] and 0.5 nM in experiment [3].
The corresponding values for `C[C@@H](NC(=O)c1cc(Cl)c(C(=O)N[C@@H](CNC(=O)c2ccccc2)C(=O)O)c(Cl)c1)c1cccc2ccccc12` [Example 347] are 250 nM and 13.1 nM.
Turning to `O=C1CC[C@@H](C(=O)NC[C@H](NC(=O)c2ccc(C(=O)NCc3cccc(O)c3)cc2Cl)C(=O)O)O1` [Example 96], the results for the IC50 in experiment [1] and in experiment [2] were 56 nM and 1300 nM, respectively.
For `O=C(NCc1ccc(C(=O)N[C@@H](CNC(=O)c2ccccc2)C(=O)O)c(Cl)c1)c1ccc2cc[nH]c2c1` [Example 369], in that order: 403 nM and 3200 nM.
The corresponding values for `O=C(NCc1cccc(O)c1)c1ccc(C(=O)N[C@@H](CNC(=O)[C@H](CC2CCCCC2)n2cccc2)C(=O)O)c(Cl)c1` [Example 110] are 272 nM and 10000 nM.
The corresponding values for `O=C(/C=C/c1cccnc1)NC[C@H](NC(=O)c1ccc(C(=O)NCc2cccc(O)c2)cc1Cl)C(=O)O` [Example 115] are 43 nM and 1350 nM.
`O=C(NCc1cccc(O)c1)c1ccc(C(=O)N[C@@H](CNC(=O)c2ccccc2Cl)C(=O)O)c(Cl)c1` [Example 122]: the IC50 in experiment [1] stood at 32 nM; in experiment [2], 925 nM.
Take `Cc1cccc(C(=O)NC[C@H](NC(=O)c2ccc(C(=O)NCc3cccc(O)c3)cc2Cl)C(=O)O)n1` [Example 163]: the results for the IC50 in experiment [1] and in experiment [2] were 40 nM and 1550 nM, respectively.
The corresponding values for `O=C(NCc1ccc(C(=O)N[C@@H](CNC(=O)c2ccccc2)C(=O)O)c(Cl)c1)c1cc(O)cc(O)c1` [Example 366] are 61 nM and 1400 nM.
As for `COc1ccc(C(=O)NC[C@H](NC(=O)c2ccc(C(=O)NCc3cccc(O)c3)cc2Cl)C(=O)O)cc1` [Example 135], the IC50 in experiment [1] was found to be 61 nM; in experiment [2], 2640 nM.
The corresponding values for `O=C(NCc1cccc(O)c1)c1ccc(C(=O)N[C@@H](CNC(=O)c2ccccc2Br)C(=O)O)c(Cl)c1` [Example 120] are 114 nM and 890 nM.
As to `Cc1ccc(C(=O)NC[C@H](NC(=O)c2c(Cl)cc(C(=O)NCc3cccc(O)c3)cc2Cl)C(=O)O)s1` [Example 358], the figures for the IC50 in experiment [2] and in experiment [3] were 64 nM and 6.5 nM, respectively.
`O=C(NCc1cccc(O)c1)c1ccc(C(=O)N[C@@H](CNC(=O)C2CC2)C(=O)O)c(Cl)c1` [Example 97]: the IC50 was found to be 121 nM in experiment [1] and 1550 nM in experiment [2].
Consider `O=C(NCc1cccc(O)c1)c1cc(Cl)c(C(=O)N[C@@H](CNC(=O)c2cccc(F)c2)C(=O)O)c(Cl)c1` [Example 349], for which the IC50 in experiment [2] was 42 nM; in experiment [3], 6.2 nM.
As to `O=C(NCc1ccc(C(=O)N[C@@H](CNC(=O)c2ccccc2)C(=O)O)c(Cl)c1)c1ccc2[nH]ccc2c1` [Example 368], the IC50 in experiment [1] came out at 765 nM; in experiment [2] it was 3850 nM.
